According to patent US12600714B2, “Substituted pyrazinecarboxamide compounds for treating diseases related to EGFR mutation” (WIGEN BIOMEDICINE TECHNOLOGY (SHANGHAI) CO., LTD., priority 2020, dated 2026):

Test system: EGFR (del19/T790M/C797S)
Test: HTRF inhibitory activity assay against EGFR (del19/T790M/C797S) enzyme
Assay type: biochemical
Experimental: Inhibitory Activity Assay of the Compounds Disclosed Herein Against EGFR (del19/T790M/C797S), EGFR (L858R/T790M/C797S) or EGFR (WT) Enzymes
The inhibitory effects of the compounds against EGFR (del19/T790M/C797S), EGFR (L858R/T790M/C797S) or EGFR (WT) enzyme activity was determined by using HTRF. The procedures are as follows:
The WT or mutant EGFR proteins were incubated with a serially diluted compounds at 28° C. for 10 min followed by addition of biotin-labeled general tyrosine kinase (TK) substrate and ATP. The mixture was incubated at room temperature for 40 min for reaction. After the termination of the reaction, an Eu3+-Cryptate-labeled antibody against TK and streptavidin-XL665 were added and the mixture was incubated at room temperature for 60 min. The luminescences at 615 nm and 665 nm were detected and the ratio of 665/615 was calculated to quantify the level of TK substrate phosphorylation. Inhibition % and IC50 of the compounds were calculated relative to the control group.

SMILES	EGFR (del19/T790M/C797S) inhibition (%) (0.3 nM compound)
CN1CCN(C2CCN(c3ccc(Nc4nc(NC5CCOCC5)c(-c5cccc(C(F)F)c5)nc4C(N)=O)cc3)CC2)CC1 [compound 105]	+ (+ indicates an inhibition less than or equal to 20%)
CN1CCN(C2CCN(c3ccc(Nc4nc(N[C@H]5CC[C@@H](O)C5)c(-c5ccccc5)nc4C(N)=O)cc3)CC2)CC1 [compound 139, 5-(((1S,3R)-3-hydroxycyclopentyl)amino)-3-((4-(4-(4-methylpiperazin-1-yl)piperidin-1-yl)phenyl)amino)-6-phenylpyrazine-2-carboxamide]	++ (++ indicates an inhibition from 20% to 50%)
CN1CCN(C2CCN(c3ccc(Nc4nc(NC5CCCC5O)c(-c5cc[nH]n5)nc4C(N)=O)cc3F)CC2)CC1 (centres unmarked) [compound 624]	++ (++ indicates an inhibition from 20% to 50%)
CN1CCN(C2CCN(c3ccc(Nc4nc(N[C@H]5C[C@H](O)C5)c(-c5cc[nH]n5)nc4C(N)=O)cc3)CC2)CC1 [compound 615]	+++ (+++ indicates an inhibition greater than 50%.)
CN1CCN(C2CCN(c3ccc(Nc4nc(NC5CCOCC5)c(-c5ccccc5C(F)F)nc4C(N)=O)cc3)CC2)CC1 [compound 82]	+ (+ indicates an inhibition less than or equal to 20%)
CN1CCN(C2CCN(c3ccc(Nc4nc(NC5CCOCC5)c(-c5ccncc5F)nc4C(N)=O)cc3)CC2)CC1 [compound 103]	++ (++ indicates an inhibition from 20% to 50%)
CN1CCN(C2CCN(c3ccc(Nc4nc(N[C@H]5C[C@@H](O)C5)c(-c5cc[nH]n5)nc4C(N)=O)cc3)CC2)CC1 [compound 614]	+++ (+++ indicates an inhibition greater than 50%.)
CN1CCN(C2CCN(c3ccc(Nc4nc(NC5CC6(COC6)C5)c(-c5cc[nH]n5)nc4C(N)=O)cc3)CC2)CC1 [compound 627]	++ (++ indicates an inhibition from 20% to 50%)
CC(=O)Nc1cccc(-c2nc(C(N)=O)c(Nc3ccc(N4CCC(N5CCN(C)CC5)CC4)cc3)nc2NC2CCOCC2)c1 [compound 100]	+ (+ indicates an inhibition less than or equal to 20%)
CN1CCN(C2CCN(c3ccc(Nc4nc(NCCC(C)(C)O)c(-c5ccccc5)nc4C(N)=O)cc3)CC2)CC1 [compound 22]	+ (+ indicates an inhibition less than or equal to 20%)
CN1CCN(C2CCN(c3ccc(Nc4nc(NC5CCOCC5)c(-c5cncnc5)nc4C(N)=O)cc3)CC2)CC1 [compound 72]	+ (+ indicates an inhibition less than or equal to 20%)
CN1CCN(C2CCN(c3ccc(Nc4nc(NC5CCCC5)c(-c5ccncc5)nc4C(N)=O)cc3F)CC2)CC1 [compound 641]	+++ (+++ indicates an inhibition greater than 50%.)
CN1CC=C(c2nc(C(N)=O)c(Nc3ccc(N4CCC(N5CCN(C)CC5)CC4)cc3)nc2NC2CCOCC2)CC1 [compound 102]	+ (+ indicates an inhibition less than or equal to 20%)
CN1CCN(C2CCN(c3ccc(Nc4nc(NC5CCOCC5)c(C5=CCNC5)nc4C(N)=O)cc3)CC2)CC1 [compound 68]	+ (+ indicates an inhibition less than or equal to 20%)
CN1CCN(C2CCN(c3ccc(Nc4nc(NC5CC6(COC6)C5)c(-c5ccncc5)nc4C(N)=O)cc3F)CC2)CC1 [compound 634]	+++ (+++ indicates an inhibition greater than 50%.)
CN1CCN(C2CCN(c3ccc(Nc4nc(NC5CC6(COC6)C5)c(-c5ccncc5)nc4C(N)=O)cc3)CC2)CC1 [compound 633]	+++ (+++ indicates an inhibition greater than 50%.)

SMILES	EGFR (del19/T790M/C797S) inhibition (%) (0.3 nM compound)
CN1CCC(Nc2nc(Nc3ccc(N4CCC(N5CCN(C)CC5)CC4)cc3)c(C(N)=O)nc2-c2ccccc2)CC1 [compound 7]	+ (+ indicates an inhibition less than or equal to 20%)
CN1CCN(C2CCN(c3ccc(Nc4nc(NC5CCOCC5)c(-c5ccccc5CO)nc4C(N)=O)cc3)CC2)CC1 [compound 71]	+ (+ indicates an inhibition less than or equal to 20%)
CN1CCN(C2CCN(c3ccc(Nc4nc(NC5CCOCC5)c(-c5ccnc6[nH]ccc56)nc4C(N)=O)cc3F)CC2)CC1 [compound 520]	+++ (+++ indicates an inhibition greater than 50%.)
CN1CCN(C2CCN(c3ccc(Nc4nc(NC5CCOCC5)c(-c5ccccc5F)nc4C(N)=O)cc3)CC2)CC1 [compound 62]	+ (+ indicates an inhibition less than or equal to 20%)
CN1CCN(C2CCN(c3ccc(Nc4nc(NC5CC5)c(-c5cc[nH]n5)nc4C(N)=O)cc3F)CC2)CC1 [compound 626]	+++ (+++ indicates an inhibition greater than 50%.)
COc1cc(Nc2nc(NC3CCOCC3)c(-c3ccccc3)nc2C(N)=O)ccc1N1CCC(N2CCN(C)CC2)CC1 [compound 112]	+ (+ indicates an inhibition less than or equal to 20%)
CN1CCN(C2CCN(c3ccc(Nc4nc(NC5CCOCC5)c(-c5ccnn5C)nc4C(N)=O)cc3)CC2)CC1 [compound 50]	+ (+ indicates an inhibition less than or equal to 20%)
COc1nc(Nc2ccc(N3CCC(N4CCN(C)CC4)CC3)cc2)c(C(N)=O)nc1-c1ccccc1 [compound 19, 5-methoxy-3-((4-(4-(4-methylpiperazin-1-yl)piperidin-1-yl)phenyl)amino)-6-phenylpyrazine-2-carboxamide]	+ (+ indicates an inhibition less than or equal to 20%)
CN1CCN(C2CCN(c3ccc(Nc4nc(NC5CCOCC5)c(-c5ccccc5NS(C)(=O)=O)nc4C(N)=O)cc3)CC2)CC1 [compound 107]	+ (+ indicates an inhibition less than or equal to 20%)
CN1CCN(C2CCN(c3ccc(Nc4nc(NC5CCOCC5)c(-c5cccc(Cl)c5)nc4C(N)=O)cc3)CC2)CC1 [compound 61]	++ (++ indicates an inhibition from 20% to 50%)
CN1CCN(C2CCN(c3ccc(Nc4nc(NC5CCC5)c(-c5ccncc5)nc4C(N)=O)cc3F)CC2)CC1 [compound 639]	+++ (+++ indicates an inhibition greater than 50%.)
CN1CCN(C2CCN(c3ccc(Nc4nc(NC5CC5)c(-c5cccc6[nH]ccc56)nc4C(N)=O)cc3F)CC2)CC1 [compound 531]	+++ (+++ indicates an inhibition greater than 50%.)
CN1CCN(C2CCN(c3ccc(Nc4nc(NC5CCOCC5)c(-c5cccc(C#N)c5)nc4C(N)=O)cc3)CC2)CC1 [compound 47]	+ (+ indicates an inhibition less than or equal to 20%)
CN1CCN(C2CCN(c3ccc(Nc4nc(NC5CCOCC56CC6)c(-c5ccccn5)nc4C(N)=O)cc3)CC2)CC1 (centres unmarked) [compound 255]	++ (++ indicates an inhibition from 20% to 50%)
CC(C)Nc1nc(Nc2ccc(N3CCC(N4CCN(C)CC4)CC3)c(F)c2)c(C(N)=O)nc1-c1ccncc1 [compound 635]	+++ (+++ indicates an inhibition greater than 50%.)
CN1CCN(C2CCN(c3ccc(Nc4nc(N[C@@H]5CCOC5)c(-c5ccccc5)nc4C(N)=O)cc3)CC2)CC1 [compound 66]	+ (+ indicates an inhibition less than or equal to 20%)
